Source: US11325889B2, “Substituted 3-((3-aminophenyl)amino)piperidine-2,6-dione compounds, compositions thereof, and methods of treatment therewith” (Celgene Corporation, priority 2018, dated 2022)

Molecular target: T1, AR protein in VCaP cells (Homo sapiens, UniProt P10275)
T1 construct: endogenous in cells; host or cells: VCaP cells
T1 sequence (P10275 1-920): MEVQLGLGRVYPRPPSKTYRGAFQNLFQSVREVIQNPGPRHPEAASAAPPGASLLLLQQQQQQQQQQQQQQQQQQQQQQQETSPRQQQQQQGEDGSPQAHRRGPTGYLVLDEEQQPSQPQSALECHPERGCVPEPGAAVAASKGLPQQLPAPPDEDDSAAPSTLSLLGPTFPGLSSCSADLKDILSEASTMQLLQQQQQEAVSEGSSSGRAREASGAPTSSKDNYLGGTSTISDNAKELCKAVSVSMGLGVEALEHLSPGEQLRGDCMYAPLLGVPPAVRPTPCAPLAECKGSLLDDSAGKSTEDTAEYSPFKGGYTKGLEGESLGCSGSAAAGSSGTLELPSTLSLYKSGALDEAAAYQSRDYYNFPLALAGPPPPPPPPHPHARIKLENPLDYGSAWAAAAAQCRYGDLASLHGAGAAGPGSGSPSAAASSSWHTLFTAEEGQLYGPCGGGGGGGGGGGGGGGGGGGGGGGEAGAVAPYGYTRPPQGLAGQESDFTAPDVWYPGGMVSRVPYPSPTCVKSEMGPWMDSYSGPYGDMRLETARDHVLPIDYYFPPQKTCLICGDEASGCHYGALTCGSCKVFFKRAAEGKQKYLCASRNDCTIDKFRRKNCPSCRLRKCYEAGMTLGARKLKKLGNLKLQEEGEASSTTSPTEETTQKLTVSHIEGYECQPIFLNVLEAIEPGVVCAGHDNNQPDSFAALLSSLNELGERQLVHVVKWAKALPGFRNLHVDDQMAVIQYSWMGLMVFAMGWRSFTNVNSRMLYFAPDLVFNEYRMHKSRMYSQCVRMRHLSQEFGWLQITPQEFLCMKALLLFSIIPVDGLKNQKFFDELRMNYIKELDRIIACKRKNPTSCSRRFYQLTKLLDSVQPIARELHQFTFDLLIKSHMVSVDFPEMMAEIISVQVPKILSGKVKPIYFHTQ
Assay: VCAP AR Degradation Assay (AR ELISA, 24 h)
Type: cell-based
Settings: for Y (lowest measured AR level normalized to DMSO control): AR degradation efficiency; for DC50: concentration of compound when AR level = 50% of DMSO control, read-out: DC50
Method in brief: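 VCaP cells in DMEM with 8% FBS exposed for 24 h at 37° C to a 10-point, 1:3 series (final top concentration […]; 0.1% DMSO control). Lysate AR measured by sandwich ELISA and normalized to DMSO as percent of control. DC50, EC50 and lowest AR level (Y) from four-parameter logistic fit.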

For `CC1(C)C(=O)N(c2ccc(C#N)c(C(F)(F)F)c2)C(=S)N1c1ccc(OCCC2CCN(CC(=O)Nc3cccc(NC4CCC(=O)NC4=O)c3)CC2)c(F)c1` (stereo not drawn) [Cmpd 3, 2-(4-(2-(4-(3-(4-cyano-3-(trifluoromethyl)phenyl)-5,5-dimethyl-4-oxo-2-thioxoimidazolidin-1-yl)-2-fluorophenoxy)ethyl)piperidin-1-yl)-N-(3-(2,6-dioxopiperidin-3-ylamino)phenyl)acetamide], which “Y (lowest measured AR level normalized to DMSO control)” value is on record?
Its value is “** (25%<Y<=35%)”.

What about the DC50 of the same compound?
The DC50 was 100 to 500 nM.

Which results are given for `CCc1cc(N2C(=S)N(c3cnc(C#N)c(C(F)(F)F)c3)C(=O)C23CCC3)ccc1OCCC1CCN([C@H](C)C(=O)Nc2cc(Cl)cc(NC3CCC(=O)NC3=O)c2)CC1` (stereo partly drawn) [Cmpd 36, (2R)-N-(3-chloro-5-(2,6-dioxopiperidin-3-ylamino)phenyl)-2-(4-(2-(4-(7-(6-cyano-5-(trifluoromethyl)pyridin-3-yl)-8-oxo-6-thioxo-5,7-diazaspiro[3.4]octan-5-yl)-2-ethylphenoxy)ethyl)piperidin-1-yl)propanamide]?
Y (lowest measured AR level normalized to DMSO control): * (0<Y<=25%); DC50: 100 to 500 nM

What does the source list for `CCc1cc(N2C(=S)N(c3cnc(C#N)c(C(F)(F)F)c3)C(=O)C23CCC3)ccc1OCCC1CCN([C@@H](C)C(=O)Nc2cc(Cl)cc(NC3CCC(=O)NC3=O)c2)CC1` (stereo partly drawn) [Cmpd 35, (2S)-N-(3-chloro-5-(2,6-dioxopiperidin-3-ylamino)phenyl)-2-(4-(2-(4-(7-(6-cyano-5-(trifluoromethyl)pyridin-3-yl)-8-oxo-6-thioxo-5,7-diazaspiro[3.4]octan-5-yl)-2-ethylphenoxy)ethyl)piperidin-1-yl)propanamide]?
Y (lowest measured AR level normalized to DMSO control): * (0<Y<=25%); DC50: 100 to 500 nM

For `CCc1cc(N2C(=S)N(c3ccc(C#N)c(C(F)(F)F)c3)C(=O)C2(C)C)ccc1OCCC1CCN(CC(=O)Nc2cc(Cl)cc(NC3CCC(=O)NC3=O)c2)CC1` (stereo not drawn) [Cmpd 20, N-(3-chloro-5-(2,6-dioxopiperidin-3-ylamino)phenyl)-2-(4-(2-(4-(3-(4-cyano-3-(trifluoromethyl)phenyl)-5,5-dimethyl-4-oxo-2-thioxoimidazolidin-1-yl)-2-ethylphenoxy)ethyl)piperidin-1-yl)acetamide], which “Y (lowest measured AR level normalized to DMSO control)” value is on record?
The value was “* (0<Y<=25%)”.

What about the DC50 of the same compound?
Its DC50 is < 100 nM.

What does the source list for `CCc1cc(N2C(=S)N(c3ccc(C#N)c(C(F)(F)F)c3)C(=O)C23CCC3)ccc1OCCC1CCN(CC(=O)Nc2cccc(NC3CCC(=O)NC3=O)c2)CC1` (stereo not drawn) [Cmpd 43, 2-(4-(2-(4-(7-(4-cyano-3-(trifluoromethyl)phenyl)-8-oxo-6-thioxo-5,7-diazaspiro[3.4]octan-5-yl)-2-ethylphenoxy)ethyl)piperidin-1-yl)-N-(3-(2,6-dioxopiperidin-3-ylamino)phenyl)acetamide]?
Y (lowest measured AR level normalized to DMSO control): * (0<Y<=25%); DC50: < 100 nM

For `CCc1cc(N2C(=S)N(c3ccc(C#N)c(C(F)(F)F)c3)C(=O)C23CCC3)ccc1OCCC1CCN([C@H](C)C(=O)Nc2cc(Cl)cc(NC3CCC(=O)NC3=O)c2)CC1` (stereo partly drawn) [Cmpd 31, (2R)-N-(3-chloro-5-(2,6-dioxopiperidin-3-ylamino)phenyl)-2-(4-(2-(4-(7-(4-cyano-3-(trifluoromethyl)phenyl)-8-oxo-6-thioxo-5,7-diazaspiro[3.4]octan-5-yl)-2-ethylphenoxy)ethyl)piperidin-1-yl)propanamide], which “Y (lowest measured AR level normalized to DMSO control)” value is on record?
The value was “* (0<Y<=25%)”.

And the DC50?
The DC50 was 100 to 500 nM.

What does the source list for `CCc1cc(N2C(=S)N(c3cnc(C#N)c(C(F)(F)F)c3)C(=O)C2(C)C)ccc1OC1CCN(CC(=O)Nc2cc(Cl)cc(NC3CCC(=O)NC3=O)c2)CC1` (stereo not drawn) [Cmpd 51, N-(3-chloro-5-(2,6-dioxopiperidin-3-ylamino)phenyl)-2-(4-(4-(3-(6-cyano-5-(trifluoromethyl)pyridin-3-yl)-5,5-dimethyl-4-oxo-2-thioxoimidazolidin-1-yl)-2-ethylphenoxy)piperidin-1-yl)acetamide]?
Y (lowest measured AR level normalized to DMSO control): * (0<Y<=25%); DC50: < 100 nM

Which results are given for `CCc1cc(N2C(=S)N(c3ccc(C#N)c(C(F)(F)F)c3)C(=O)C23CCC3)ccc1OCCC1CCN([C@@H](C)C(=O)Nc2cc(NC3CCC(=O)NC3=O)ccc2F)CC1` (stereo partly drawn) [Cmpd 74, (2S)-2-(4-(2-(4-(7-(4-cyano-3-(trifluoromethyl)phenyl)-8-oxo-6-thioxo-5,7-diazaspiro[3.4]octan-5-yl)-2-ethylphenoxy)ethyl)piperidin-1-yl)-N-(5-(2,6-dioxopiperidin-3-ylamino)-2-fluorophenyl)propanamide]?
Y (lowest measured AR level normalized to DMSO control): ** (25%<Y<=35%); DC50: 100 to 500 nM

Which results are given for `CCc1cc(N2C(=S)N(c3cnc(C#N)c(C(F)(F)F)c3)C(=O)C2(C)C)ccc1OCCC1CCN([C@H](C)C(=O)Nc2cccc(N[C@@H]3CCC(=O)NC3=O)c2)CC1` [Cmpd 45, (R)-2-(4-(2-(4-(3-(6-cyano-5-(trifluoromethyl)pyridin-3-yl)-5,5-dimethyl-4-oxo-2-thioxoimidazolidin-1-yl)-2-ethylphenoxy)ethyl)piperidin-1-yl)-N-(3-((R)-2,6-dioxopiperidin-3-ylamino)phenyl)propanamide]?
Y (lowest measured AR level normalized to DMSO control): * (0<Y<=25%); DC50: < 100 nM

Which “Y (lowest measured AR level normalized to DMSO control)” value does the source give for `CCc1cc(N2C(=S)N(c3ccc(C#N)c(C(F)(F)F)c3)C(=O)C23CCC3)ccc1OCCC1CCN(CC(=O)Nc2cc(Cl)cc(NC3CCC(=O)NC3=O)c2)CC1` (stereo not drawn) [Cmpd 28, N-(3-chloro-5-(2,6-dioxopiperidin-3-ylamino)phenyl)-2-(4-(2-(4-(7-(4-cyano-3-(trifluoromethyl)phenyl)-8-oxo-6-thioxo-5,7-diazaspiro[3.4]octan-5-yl)-2-ethylphenoxy)ethyl)piperidin-1-yl)acetamide] here?
Its value is “* (0<Y<=25%)”.

And the DC50?
Its DC50 is 100 to 500 nM.

Which results are given for `CCc1cc(N2C(=S)N(c3cnc(C#N)c(C(F)(F)F)c3)C(=O)C2(C)C)ccc1OCCC1CCN(CC(=O)Nc2cccc(NC3CCC(=O)NC3=O)c2)CC1` (stereo not drawn) [Cmpd 12, 2-(4-(2-(4-(3-(6-cyano-5-(trifluoromethyl)pyridin-3-yl)-5,5-dimethyl-4-oxo-2-thioxoimidazolidin-1-yl)-2-ethylphenoxy)ethyl)piperidin-1-yl)-N-(3-(2,6-dioxopiperidin-3-ylamino)phenyl)acetamide]?
Y (lowest measured AR level normalized to DMSO control): * (0<Y<=25%); DC50: < 100 nM

For `CC(C)c1cc(N2C(=S)N(c3ccc(C#N)c(C(F)(F)F)c3)C(=O)C2(C)C)ccc1OCC[C@@H]1CCN(CC(=O)Nc2cccc(NC3CCC(=O)NC3=O)c2)[C@H](C)C1` (stereo partly drawn) [Cmpd 91, 2-((2R,4R)-4-(2-(4-(3-(4-cyano-3-(trifluoromethyl)phenyl)-5,5-dimethyl-4-oxo-2-thioxoimidazolidin-1-yl)-2-isopropylphenoxy)ethyl)-2-methylpiperidin-1-yl)-N-(3-(2,6-dioxopiperidin-3-ylamino)phenyl)acetamide], which “Y (lowest measured AR level normalized to DMSO control)” value is on record?
Its value is “** (25%<Y<=35%)”.

What about the DC50 of the same compound?
The DC50 was 500 to 1000 nM.
